Results: US20220227737A1, “NOVEL OXALYL PIPERAZINES ACTIVE AGAINST THE HEPATITIS B VIRUS (HBV)” (AiCuris GmbH & Co. KG, priority 2019, published 2022)

Assays:
[1] = Cell viability assay (AlamarBlue); conditions: human, HepAD38 cells
HBV = HBV replication assay: HBV DNA from the supernatants of HepAD38 cells; type: cell-based; conditions: Hepatitis B virus, 144 h, HBV DNA in supernatant at day 6, read-out: Cell Activity
Protocol: Determination of HBV DNA from the Supernatants of HepAD38 Cells
The anti-HBV activity was analysed in the stable transfected cell line HepAD38, which has been described to secrete high levels of HBV virion particles (Ladner et al., 1997). In brief, HepAD38 cells were cultured at 37° C. at 5% CO2 and 95% humidity in 200 μl maintenance medium, which was Dulbecco's modified Eagle's medium/Nutrient Mixture F-12 (Gibco, Karlsruhe), 10% fetal bovine serum (PAN Biotech Aidenbach) supplemented with 50 μg/ml penicillin/streptomycin (Gibco, Karlsruhe), 2 mM L-glutamine (PAN Biotech, Aidenbach), 400 μg/ml G418 (AppliChem, Darmstadt) and 0.3 μg/ml tetracycline. Cells were subcultured once a week in a 1:5 ratio, but were usually not passaged more than ten times. For the assay 60,000 cells were seeded in maintenance medium without any tetracycline into each well of a 96-well plate and treated with serial half-log dilutions of test compound. To minimize edge effects the outer 36 wells of the plate were not used but were filled with assay medium. On each assay plate six wells for the virus control (untreated HepAD38 cells) and six wells for the cell control (HepAD38 cells treated with 0.3 μg/ml tetracycline) were allocated, respectively. In addition, one plate set with reference inhibitors like BAY 41-4109, entecavir, and lamivudine instead of screening compounds were prepared in each experiment. In general, experiments were performed thrice in triplicates. At day 6 HBV DNA from 100 μl filtrated cell culture supernatant (AcroPrep Advance 96 Filter Plate, […] Supor membran, PALL GmbH, Dreieich) was automatically purified on the MagNa Pure LC instrument using the MagNA Pure 96 DNA and Viral NA Small Volume Kit (Roche Diagnostics, Mannheim) according to the instructions of the manufacturer. EC50 values were calculated from relative copy numbers of HBV DNA In brief, 5 μl of the 100 μl eluate containing HBV DNA were subjected to PCR LC480 Probes Master Kit (Roche) together with 1 μM antisense primer […], 0.5 μM sense primer […], 0.3 μM hybprobes […]-FL and LC640-[…]-PH (TIBMolBiol, Berlin) to a final volume of […]. The PCR was performed on the Light Cycler 480 real time system (Roche Diagnostics, Mannheim) using the following protocol: Pre-incubation for 1 min at 95° C., amplification: 40 cycles×(10 sec at 95° C., 50 sec at 60° C., 1 sec at 70° C.), cooling for 10 sec at 40° C. Viral load was quantitated against known standards using HBV plasmid DNA of pCH-9/3091 (Nassal et al., 1990, Cell 63: 1357-1363) and the LightCycler 480 SW 1.5 software (Roche Diagnostics, Mannheim) and EC50 values were calculated using non-linear regression with GraphPad Prism 6 (GraphPad Software Inc., La Jolla, USA).

[2] = molecular target: T1, C-terminal truncated core protein (HBV core dimer, BODIPY-FL labelled) (UniProt P03146); experiment: Biochemical capsid assembly assay (fluorescence quenching)
T1 construct: fused on or other part: One added cysteine at position 150, labelled with BODIPY-FL maleimide; The C-terminal arginine-rich domain is absent
T1 sequence (P03146 whole entry, the tested form may be a part): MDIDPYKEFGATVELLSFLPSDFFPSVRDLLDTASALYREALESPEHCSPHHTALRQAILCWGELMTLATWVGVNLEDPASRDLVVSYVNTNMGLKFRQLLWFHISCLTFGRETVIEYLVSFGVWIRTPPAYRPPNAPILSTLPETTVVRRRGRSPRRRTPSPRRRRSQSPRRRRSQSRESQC
Protocol: Biochemical Capsid Assembly Assay
The screening for assembly effector activity was done based on a fluorescence quenching assay published by Zlotnick et al. (2007). The C-terminal truncated core protein containing 149 amino acids of the N-terminal assembly domain fused to a unique cysteine residue at position 150 and was expressed in E. coli using the pET expression system (Merck Chemicals, Darmstadt). Purification of core dimer protein was performed using a sequence of size exclusion chromatography steps. In brief, the cell pellet from 1 L BL21 (DE3) Rosetta2 culture expressing the coding sequence of core protein cloned NdeI/XhoI into expression plasmid pET21b was treated for 1 h on ice with a native lysis buffer (Qproteome Bacterial Protein Prep Kit; Qiagen, Hilden). After a centrifugation step the supernatant was precipitated during 2 h stirring on ice with 0.23 g/ml of solid ammonium sulfate. Following further centrifugation the resulting pellet was resolved in buffer A (100 mM Tris, pH 7.5; 100 mM NaCl; 2 mM DTT) and was subsequently loaded onto a buffer A equilibrated CaptoCore 700 column (GE HealthCare, Frankfurt). The column flow through containing the assembled HBV capsid was dialyzed against buffer N (50 mM NaHCO3 pH 9.6; 5 mM DTT) before urea was added to a final concentration of 3M to dissociate the capsid into core dimers for 1.5 h on ice. The protein solution was then loaded onto a 1 L Sephacryl 5300 column. After elution with buffer N core dimer containing fractions were identified by SDS-PAGE and subsequently pooled and dialyzed against 50 mM HEPES pH 7.5; 5 mM DTT. To improve the assembly capacity of the purified core dimers a second round of assembly and disassembly starting with the addition of 5 M NaCl and including the size exclusion chromatography steps described above was performed. From the last chromatography step core dimer containing fractions were pooled and stored in aliquots at concentrations between 1.5 to 2.0 mg/ml at −80° C.
Immediately before labelling the core protein was reduced by adding freshly prepared DTT in a final concentration of 20 mM. After 40 min incubation on ice storage buffer and DTT was removed using a Sephadex G-25 column (GE HealthCare, Frankfurt) and 50 mM HEPES, pH 7.5. For labelling 1.6 mg/ml core protein was incubated at 4° C. and darkness overnight with BODIPY-FL maleimide (Invitrogen, Karlsruhe) in a final concentration of 1 mM. After labelling the free dye was removed by an additional desalting step using a Sephadex G-25 column. Labelled core dimers were stored in aliquots at 4° C. In the dimeric state the fluorescence signal of the labelled core protein is high and is quenched during the assembly of the core dimers to high molecular capsid structures. The screening assay was performed in black 384 well microtiter plates in a total assay volume of 10 μl using 50 mM HEPES pH 7.5 and 1.0 to 2.0 μM labelled core protein. Each screening compound was added in 8 different concentrations using a 0.5 log-unit serial dilution starting at a final concentration of 100 μM, 31.6 μM or 10 μM, In any case the DMSO concentration over the entire microtiter plate was 0.5%. The assembly reaction was started by the injection of NaCl to a final concentration of […] which induces the assembly process to approximately 25% of the maximal quenched signal. […] after starting the reaction the fluorescence signal was measured using a Clariostar plate reader (BMG Labtech, Ortenberg) with an excitation of 477 nm and an emission of 525 nm. As 100% and 0% assembly control HEPES buffer containing 2.5 M and 0 M NaCl was used. Experiments were performed thrice in triplicates. EC50 values were calculated by non-linear regression analysis using the Graph Pad Prism 6 software (GraphPad Software, La Jolla, USA).

## O=C(NCCCO)C(=O)N1CCN(C(=O)c2cc3c(F)cc(F)cc3[nH]2)CC1 [Example 54, 2-(4-(4,6-difluoro-1H-indole-2-carbonyl)piperazin-1-yl)-N-(3-hydroxypropyl)-2-oxoacetamide]
[1]
  CC50 at 6 days: > 100 µM
HBV
  EC50: < 1 µM
[2]
  IC50: < 5 µM

## CCCCNC(=O)C(=O)N1CCCN(C(=O)c2cc3ccccc3[nH]2)CC1 [Example 8, N-butyl-2-[4-(1H-indole-2-carbonyl)-1,4-diazepan-1-yl]-2-oxoacetamide]
[1]
  CC50 at 6 days: > 100 µM
HBV
  EC50: < 1 µM
[2]
  IC50: < 100 µM

## CCCCNC(=O)C(=O)N1CCN(C(=O)c2cc3c(F)cccc3[nH]2)CC1 [Example 26, N-butyl-2-(4-(4-fluoro-1H-indole-2-carbonyl)piperazin-1-yl)-2-oxoacetamide]
[1]
  CC50 at 6 days: > 100 µM
HBV
  EC50: < 1 µM
[2]
  IC50: < 5 µM

## O=C(NCCO)C(=O)N1CCN(C(=O)c2cc3ccccc3[nH]2)CC1 [Example 3, 2-(4-(1H-indole-2-carbonyl)piperazin-1-yl)-N-(2-hydroxyethyl)-2-oxoacetamide]
[1]
  CC50 at 6 days: > 100 µM
HBV
  EC50: 1 to 10 µM
[2]
  IC50: < 100 µM

## O=C(NCCCCO)C(=O)N1CCN(C(=O)c2cc3c(F)cc(F)cc3[nH]2)CC1 [Example 62, 2-(4-(4,6-difluoro-1H-indole-2-carbonyl)piperazin-1-yl)-N-(4-hydroxybutyl)-2-oxoacetamide]
[1]
  CC50 at 6 days: > 100 µM
HBV
  EC50: < 1 µM
[2]
  IC50: < 5 µM

## CCCCCCNC(=O)C(=O)N1CCN(C(=O)c2cc3ccccc3[nH]2)CC1 [Example 11, 2-(4-(1H-indole-2-carbonyl)piperazin-1-yl)-N-hexyl-2-oxoacetamide]
[1]
  CC50 at 6 days: > 100 µM
HBV
  EC50: 1 to 10 µM
[2]
  IC50: < 5 µM

## CCC(CCO)CNC(=O)C(=O)N1CCN(C(=O)c2cc3c(F)cc(F)cc3[nH]2)CC1 (stereo not drawn) [Example 59, 2-(4-(4,6-difluoro-1H-indole-2-carbonyl)piperazin-1-yl)-N-(2-ethyl-4-hydroxybutyl)-2-oxoacetamide]
[1]
  CC50 at 6 days: > 100 µM
HBV
  EC50: < 1 µM
[2]
  IC50: < 5 µM

## O=C(NCc1ccoc1)C(=O)N1CCN(C(=O)c2cc3ccccc3[nH]2)CC1 [Example 10, 2-(4-(1H-indole-2-carbonyl)piperazin-1-yl)-N-(furan-3-ylmethyl)-2-oxoacetamide]
[1]
  CC50 at 6 days: > 100 µM
HBV
  EC50: < 1 µM
[2]
  IC50: < 5 µM

## CCCCNC(=O)C(=O)N1CCN(C(=O)c2cc3cccc(Br)c3[nH]2)CC1 [Example 5, 2-[4-(7-bromo-1H-indole-2-carbonyl)piperazin-1-yl]-N-butyl-2-oxoacetamide]
[1]
  CC50 at 6 days: > 100 µM
HBV
  EC50: < 1 µM
[2]
  IC50: < 5 µM

## COC1(CNC(=O)C(=O)N2CCN(C(=O)c3cc4c(F)cc(F)cc4[nH]3)CC2)CC1 [Example 65, 2-(4-(4,6-difluoro-1H-indole-2-carbonyl)piperazin-1-yl)-N-((1-methoxycyclopropyl)methyl)-2-oxoacetamide]
[1]
  CC50 at 6 days: > 100 µM
HBV
  EC50: < 1 µM
[2]
  IC50: < 5 µM

## COC1(CNC(=O)C(=O)N2CCN(C(=O)c3cc4ccccc4[nH]3)CC2)CC1 [Example 13, 2-(4-(1H-indole-2-carbonyl)piperazin-1-yl)-N-((1-methoxycyclopropyl)methyl)-2-oxoacetamide]
[1]
  CC50 at 6 days: > 100 µM
HBV
  EC50: < 1 µM
[2]
  IC50: 5 to 10 µM

## O=C(NCCCCCCO)C(=O)N1CCN(C(=O)c2cc3c(F)cc(F)cc3[nH]2)CC1 [Example 56, 2-(4-(4,6-difluoro-1H-indole-2-carbonyl)piperazin-1-yl)-N-(6-hydroxyhexyl)-2-oxoacetamide]
[1]
  CC50 at 6 days: > 100 µM
HBV
  EC50: 1 to 10 µM
[2]
  IC50: < 5 µM

## O=C(NCCCCO)C(=O)N1CCN(C(=O)c2cc3ccccc3[nH]2)CC1 [Example 29, 2-(4-(1H-indole-2-carbonyl)piperazin-1-yl)-N-(4-hydroxybutyl)-2-oxoacetamide]
[1]
  CC50 at 6 days: > 100 µM
HBV
  EC50: 1 to 10 µM
[2]
  IC50: < 5 µM

## C[C@H](O)CNC(=O)C(=O)N1CCN(C(=O)c2cc3c(F)cc(F)cc3[nH]2)CC1 [Example 58, (S)-2-(4-(4,6-difluoro-1H-indole-2-carbonyl)piperazin-1-yl)-N-(2-hydroxypropyl)-2-oxoacetamide]
[1]
  CC50 at 6 days: > 100 µM
HBV
  EC50: < 1 µM
[2]
  IC50: < 5 µM

## CCCCNC(=O)C(=O)N1CCN(C(=O)c2cc3cccc(F)c3[nH]2)CC1 [Example 25, N-butyl-2-(4-(7-fluoro-1H-indole-2-carbonyl)piperazin-1-yl)-2-oxoacetamide]
[1]
  CC50 at 6 days: > 100 µM
HBV
  EC50: < 1 µM
[2]
  IC50: < 5 µM

## CC(O)CCCNC(=O)C(=O)N1CCN(C(=O)c2cc3c(F)cc(F)cc3[nH]2)CC1 (stereo not drawn) [Example 60, 2-(4-(4,6-difluoro-1H-indole-2-carbonyl)piperazin-1-yl)-N-(4-hydroxypentyl)-2-oxoacetamide]
[1]
  CC50 at 6 days: > 100 µM
HBV
  EC50: < 1 µM
[2]
  IC50: < 5 µM

## O=C(NCC1(O)CC1)C(=O)N1CCN(C(=O)c2cc3c(F)cc(F)cc3[nH]2)CC1 [Example 53, 2-(4-(4,6-difluoro-1H-indole-2-carbonyl)piperazin-1-yl)-N-((1-hydroxycyclopropyl)methyl)-2-oxoacetamide]
[1]
  CC50 at 6 days: > 100 µM
HBV
  EC50: < 1 µM
[2]
  IC50: < 5 µM

## C[C@@H](O)CNC(=O)C(=O)N1CCN(C(=O)c2cc3c(F)cc(F)cc3[nH]2)CC1 [Example 64, (R)-2-(4-(4,6-difluoro-1H-indole-2-carbonyl)piperazin-1-yl)-N-(2-hydroxypropyl)-2-oxoacetamide]
[1]
  CC50 at 6 days: > 100 µM
HBV
  EC50: < 1 µM
[2]
  IC50: < 5 µM
